# Measurements as given in patent publication US20210052600A1, “THERAPEUTIC AGENTS FOR STRESS URINARY INCONTINENCE AND INCOTINENCE OF FECES” (Takeda Pharmaceutical Company Limited, priority 2017, published 2021).
# Where two headings read alike, the source gives them in different places.
# Columns and labels:
# [1] = cited from earlier work
# anus-closing functions = experiment: Rat anus-closing functions (Anal LPP) measured by high speed infusion of saline into the rectum; assay type: in vivo; conditions: 1 mg/kg i.v.; 5 minutes after administration; mean ± SEM
# From the text: Thirty six female SD rats were used. After overnight fasting, rats were intraperitoneally administered with urethane for anesthesia, and isoflurane inhalation was further added during surgery. The abdomen was incised to expose the rectum, and a small incision of the rectum was made. A polyethylene catheter (SP61, Natsume) was inserted into the rectum through the rectum incision, and the tip of the catheter was positioned around 5 mm from the anal orifice. The other end of the catheter was connected with a pressure transducer and an infusion pump via three-way stopcocks, and the change in pressure in the rectum was measured using the pressure transducer, an electric signal amplifier, and an analog-to-digital converter. For administrating drugs, a polyethylene catheter (SP45, Natsume) was inserted into the femoral vein after exposing the vein by small incision.
# After recovery period from surgery, while saline was infused at a speed of 0.1 mL/sec into the rectum using an infusion pump, change in the measured pressure—was observed. The infusion was stopped when the leakage of the saline from the anal orifice was observed. In the procedure, sudden decrease in the pressure was observed during the infusion with the leakage of saline from the anal orifice. The peak value of the pressure recorded in the rectum during the course of the procedures was defined as “an Anal LPP” in this Example. […] The Anal LPP was again measured in the same way 5 minutes after drug administration. The difference in Anal LPP from the Pre value (increased amount of Anal LPP) was calculated. Regarding change in Anal LPP before and after drug administration, the differences between the mean values of the drug-treated and vehicle-treated groups were analyzed by the one-tailed Williams' test or Student's t-test.
# [2] = cited from earlier work; remark: listed apart in the source
# [3] = Body weight of obese rats (DIO-F344) under continuous subcutaneous administration and effective plasma concentration; assay type: in vivo, rat; conditions: for Change in body weight (% change): mean ± SEM
# Method: Forty male DIO-F344 rats bred with high fat diet (42 kcal % fat) were used. On the day before surgery, the rats were grouped on the basis of their body weight. Compound A′ and Compound B′ were each dissolved in saline. Osmotic pumps filled with the Compound A′ or Compound B′ solution were subcutaneously implanted in the rats under isoflurane anesthesia. The body weight just after surgery was used as a Pre value, and the body weight was measured every day until 14 days after surgery. Regarding the averages in the body weight on Day 14, the difference in the mean averages of the drug-treated group and the vehicle-treated group was analyzed by the one-tailed Williams' test.
# The average Day 14 plasma concentration from the values of each rat measured in the morning and afternoon was used as a plasma concentration for the animal. The rate of change in body weight was calculated from the values measured just after and 14 days after osmotic pump implantation. The rate (average rate) of change of the vehicle group was subtracted from that of each drug-administered rat to plot the plasma concentration and the change in body weight. The plasma concentration at which the drug lowered the body weight by 3.8% was calculated by linear regression analysis.
# urethral resistance = experiment: Rat urethral resistance (LPP) measured by high speed infusion of saline into the bladder; assay type: in vivo; conditions: for LPP Post / LPP Increase / LPP Pre: Table 8, mean ± SEM; for LPP Post: 30 minutes after administration; for LPP Increase: Post minus Pre; for LPP Pre: before administration
# From the text: The rats were anesthetized with isoflurane. Their spinal cord was transected at the T8-T9 (the eighth thoracic cord—the ninth thoracic cord) level. After opening of the bladder dome, two polyethylene tubes (PE-100) were inserted into the bladder. The incised portion of the bladder was closed with sutures, and the other incisions were also closed. The rats were placed in Bollman cages. The catheter for intravesical pressure measurement was connected to a pressure transducer, while the catheter for saline filling was connected to a syringe filled with Evans Blue-dyed saline. Change in intravesical pressure was recorded using the pressure transducer via an electric signal amplifier and an analog-to-digital converter. After recovery of the animals from anesthesia, the intravesical pressure measurement was started, and saline was infused at a speed of 0.1 mL/sec into the bladder using an infusion pump. The infusion was stopped when the leakage of the saline from the urethral orifice was observed. Immediately thereafter, the bladder was emptied by releasing the pressure. In this operation, the peak of recorded intravesical pressure during the saline infusion was used as LPP in this Example. This measurement was repeated, and the average LPP from the last three measurements was used as the LPP value of the trial. The mean from 2 such trials was used as a Pre value. 0.5% MC was used as the vehicle. […] The difference in LPP from the Pre value (increased amount of LPP) was calculated. Regarding change in LPP before and after drug administration, the differences between the mean values of the drug-treated and vehicle-treated groups were analyzed by the one-tailed Williams' test.
compound,measurement,setting,value
"C[C@H]1CNCCc2ccc(Cl)cc21 [Compound B′, (R)-8-chloro-1-methyl-2,3,4,5-tetrahydro-1H-3-benzazepine]",half-life in blood,[1]; after a single dose of 10 mg,11.1 h
same,maximum blood concentration,[1]; after a single dose of 10 mg,46.0 ng/mL
same,maximum blood concentration,[1]; immediate release formulation 10 mg once daily (Blossom trial),40 ng/mL
same,maximum blood concentration (Cmax),[1]; immediate release formulation 10 mg twice daily (Blossom trial),56 ng/mL
same,Anal LPP Increase,anus-closing functions,13.8 ± 5.7 cmH2O
same,patients with adverse events,[2]; 10 mg bid group,57.9%
same,subjects with headache,[2]; 10 mg bid group,32.5%
same,subjects with nausea,[2]; 10 mg bid group,8.8%
same,difference of body weight loss from placebo,[2]; 10 mg once daily (QD) (Blossom trial),2.6%
same,"weight loss, difference from placebo group","[2]; obese patients, 10 mg twice daily (Blossom trial)",3.8%
same,Change in body weight (% change),"[3]; 0.45 mg/animal/day s.c. osmotic pump, day 3",−0.9 ± 0.2 % change
same,Change in body weight (% change),"[3]; 0.45 mg/animal/day s.c. osmotic pump, day 7",−1.4 ± 0.5 % change
same,Change in body weight (% change),"[3]; 0.45 mg/animal/day s.c. osmotic pump, day 10",−3.3 ± 0.4 % change
same,Change in body weight (% change),"[3]; 0.45 mg/animal/day s.c. osmotic pump, day 14",−3.7 ± 0.6 % change
same,Change in body weight (% change),"[3]; 1.35 mg/animal/day s.c. osmotic pump, day 3",−1.4 ± 0.3 % change
same,Change in body weight (% change),"[3]; 1.35 mg/animal/day s.c. osmotic pump, day 7",−2.5 ± 0.5 % change
same,Change in body weight (% change),"[3]; 1.35 mg/animal/day s.c. osmotic pump, day 10",−4.6 ± 0.3 % change
same,Change in body weight (% change),"[3]; 1.35 mg/animal/day s.c. osmotic pump, day 14",−5.4 ± 0.2 % change
same,Change in body weight (% change),"[3]; 4.5 mg/animal/day s.c. osmotic pump, day 3",−3.1 ± 0.6 % change
same,Change in body weight (% change),"[3]; 4.5 mg/animal/day s.c. osmotic pump, day 7",−4.8 ± 0.9 % change
same,Change in body weight (% change),"[3]; 4.5 mg/animal/day s.c. osmotic pump, day 10",−7.1 ± 0.7 % change
same,Change in body weight (% change),"[3]; 4.5 mg/animal/day s.c. osmotic pump, day 14",−8.6 ± 1.0 % change
same,plasma concentration at which the drug lowered the body weight by 3.8%,"[3]; DIO-F344 rats, day 14, vehicle-subtracted, linear regression analysis",140 ng/mL
same,LPP Post,urethral resistance; 1 mg/kg p.o.,77.0 ± 3.6 cm H2O
same,LPP Increase,urethral resistance; 1 mg/kg p.o.,9.0 ± 1.9 cm H2O
same,LPP Pre,urethral resistance; 1 mg/kg p.o.,67.9 ± 2.5 cm H2O
same,LPP Post,urethral resistance; 2.5 mg/kg p.o.,88.1 ± 3.5 cm H2O
same,LPP Increase,urethral resistance; 2.5 mg/kg p.o.,19.6 ± 1.7 cm H2O
same,LPP Pre,urethral resistance; 2.5 mg/kg p.o.,68.5 ± 3.8 cm H2O
same,LPP Post,urethral resistance; 5 mg/kg p.o.,85.4 ±4.1 cm H2O
same,LPP Increase,urethral resistance; 5 mg/kg p.o.,25.1 ± 2.7 cm H2O
same,LPP Pre,urethral resistance; 5 mg/kg p.o.,60.2 ± 5.1 cm H2O
same,"LPP10, the dose that increases LPP by 10 cm H2O","urethral resistance; oral administration, high speed saline infusion method",1.2 mg/kg
